Key:
Assay type in all cases: cell-based
[1] = target: Muscarinic acetylcholine receptor M3 (Homo sapiens, UniProt P20309); test: Affinity for Muscarinic acetylcholine receptor M3 expressed in CHO cells by [3H]-NMS displacement.
[2] = target: T1, Muscarinic acetylcholine receptor M2 (Homo sapiens, UniProt P08172); test: Affinity for Muscarinic acetylcholine receptor M2 expressed in CHO cells by [3H]NMS displacement.
T1 sequence (P08172 whole entry): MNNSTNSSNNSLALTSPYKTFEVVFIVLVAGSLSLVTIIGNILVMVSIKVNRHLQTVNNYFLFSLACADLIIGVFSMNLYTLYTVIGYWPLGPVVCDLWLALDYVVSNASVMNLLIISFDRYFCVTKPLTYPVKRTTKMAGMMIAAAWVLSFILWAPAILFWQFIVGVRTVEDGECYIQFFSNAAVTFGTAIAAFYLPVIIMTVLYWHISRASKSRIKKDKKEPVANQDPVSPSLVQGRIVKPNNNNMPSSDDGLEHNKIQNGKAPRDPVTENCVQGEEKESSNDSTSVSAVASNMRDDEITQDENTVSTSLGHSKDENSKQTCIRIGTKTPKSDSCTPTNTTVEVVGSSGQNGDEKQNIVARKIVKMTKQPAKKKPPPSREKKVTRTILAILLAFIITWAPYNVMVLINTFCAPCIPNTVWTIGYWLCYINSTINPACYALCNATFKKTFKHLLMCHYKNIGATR

[3] = target: T2, Muscarinic acetylcholine receptor M5 (Homo sapiens, UniProt P08912); test: Affinity for Muscarinic acetylcholine receptor M5 expressed in CHO cells by [3H]NMS displacement.
T2 sequence (P08912 whole entry): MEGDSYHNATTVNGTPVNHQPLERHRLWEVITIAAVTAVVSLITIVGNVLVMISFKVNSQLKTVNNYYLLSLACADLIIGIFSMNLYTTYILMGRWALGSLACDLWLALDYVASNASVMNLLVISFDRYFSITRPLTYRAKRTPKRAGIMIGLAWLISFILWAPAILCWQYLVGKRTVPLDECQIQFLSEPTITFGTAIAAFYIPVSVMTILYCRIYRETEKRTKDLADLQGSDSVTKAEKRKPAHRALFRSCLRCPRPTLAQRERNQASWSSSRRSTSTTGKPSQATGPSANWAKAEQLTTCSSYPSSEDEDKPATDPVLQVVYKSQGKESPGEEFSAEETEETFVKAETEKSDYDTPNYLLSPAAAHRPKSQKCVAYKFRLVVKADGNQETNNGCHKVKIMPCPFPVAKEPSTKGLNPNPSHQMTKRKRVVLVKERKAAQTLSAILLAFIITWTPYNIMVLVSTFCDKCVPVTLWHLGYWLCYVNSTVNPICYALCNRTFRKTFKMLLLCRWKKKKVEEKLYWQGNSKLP

[4] = target: T3, Muscarinic acetylcholine receptor M4 (Homo sapiens, UniProt P08173); test: Affinity for Muscarinic acetylcholine receptor M4 expressed in CHO cells by [3H]NMS displacement.
T3 sequence (P08173 whole entry): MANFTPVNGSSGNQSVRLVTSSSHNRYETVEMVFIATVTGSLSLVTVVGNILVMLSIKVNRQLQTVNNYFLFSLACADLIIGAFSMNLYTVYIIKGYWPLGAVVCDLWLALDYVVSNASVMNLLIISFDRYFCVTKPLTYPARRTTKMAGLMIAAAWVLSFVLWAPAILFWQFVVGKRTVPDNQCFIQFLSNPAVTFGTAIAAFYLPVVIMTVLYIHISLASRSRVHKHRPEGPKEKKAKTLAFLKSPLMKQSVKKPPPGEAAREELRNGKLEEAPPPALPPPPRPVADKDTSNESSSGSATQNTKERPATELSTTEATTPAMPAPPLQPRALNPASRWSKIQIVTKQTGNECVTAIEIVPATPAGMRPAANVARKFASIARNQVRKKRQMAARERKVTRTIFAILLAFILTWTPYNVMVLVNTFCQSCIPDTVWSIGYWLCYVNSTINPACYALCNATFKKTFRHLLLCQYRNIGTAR

[5] = target: T4, Muscarinic acetylcholine receptor M1 (Homo sapiens, UniProt P11229); test: Affinity for Muscarinic acetylcholine receptor M1 expressed in CHO cells by [3H]NMS displacement.
T4 sequence (P11229 whole entry): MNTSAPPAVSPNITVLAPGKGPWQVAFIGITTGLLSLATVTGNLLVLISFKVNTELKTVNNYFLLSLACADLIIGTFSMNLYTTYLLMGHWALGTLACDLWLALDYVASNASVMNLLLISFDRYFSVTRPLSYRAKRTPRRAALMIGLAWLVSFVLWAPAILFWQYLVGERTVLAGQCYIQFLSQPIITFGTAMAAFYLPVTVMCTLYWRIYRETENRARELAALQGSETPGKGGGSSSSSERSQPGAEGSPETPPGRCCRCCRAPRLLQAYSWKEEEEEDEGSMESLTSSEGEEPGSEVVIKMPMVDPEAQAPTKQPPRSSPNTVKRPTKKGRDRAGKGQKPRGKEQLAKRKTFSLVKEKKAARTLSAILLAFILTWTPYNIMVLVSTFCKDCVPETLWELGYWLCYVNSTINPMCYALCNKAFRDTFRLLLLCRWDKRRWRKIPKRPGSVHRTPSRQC

Sequence of Muscarinic acetylcholine receptor M3 (P20309 whole entry): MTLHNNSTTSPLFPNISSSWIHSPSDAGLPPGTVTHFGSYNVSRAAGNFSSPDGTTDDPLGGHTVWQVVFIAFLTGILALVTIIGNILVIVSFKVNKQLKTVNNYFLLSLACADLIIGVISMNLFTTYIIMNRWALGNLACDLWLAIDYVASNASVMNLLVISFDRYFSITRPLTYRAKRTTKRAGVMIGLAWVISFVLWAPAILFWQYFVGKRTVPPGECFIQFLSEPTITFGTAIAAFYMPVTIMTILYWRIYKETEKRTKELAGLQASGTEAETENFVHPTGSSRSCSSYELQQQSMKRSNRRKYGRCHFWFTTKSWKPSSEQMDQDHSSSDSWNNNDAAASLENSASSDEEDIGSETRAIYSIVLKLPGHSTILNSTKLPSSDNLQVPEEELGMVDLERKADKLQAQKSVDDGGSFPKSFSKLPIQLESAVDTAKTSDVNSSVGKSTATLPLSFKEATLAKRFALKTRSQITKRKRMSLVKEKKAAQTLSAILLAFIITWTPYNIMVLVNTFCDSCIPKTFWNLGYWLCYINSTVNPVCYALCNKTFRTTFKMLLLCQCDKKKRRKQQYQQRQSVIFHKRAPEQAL

CN1CCN(C(=O)C2=C/C(=C\c3ccncc3)c3ccccc32)CC1
Ki [1]: 97.7 µM
Ki [2]: 38.9 µM
Ki [3]: 55 µM
Ki [4]: 89.1 µM
Ki [5]: 29.5 µM

CN(C)CCN(C)C(=O)C1=C/C(=C\c2cccnc2)c2ccccc21
Ki [1]: 72.4 µM
Ki [2]: 14.1 µM
Ki [3]: 53.7 µM
Ki [4]: 55 µM
Ki [5]: 49 µM

CN(C)CCN(C)C(=O)C1=C/C(=C\c2ccccn2)c2ccccc21
Ki [1]: 63.1 µM
Ki [2]: 9.12 µM
Ki [3]: 52.5 µM
Ki [4]: 46.8 µM
Ki [5]: 21.9 µM

CN(C)CCNC(=O)C1=C/C(=C\c2cccnc2)c2ccccc21
Ki [1]: 40.7 µM
Ki [2]: 29.5 µM
Ki [3]: 66.1 µM
Ki [4]: 21.4 µM
Ki [5]: 28.2 µM

CC(C1=C(CCN(C)C)Cc2ccccc21)c1ccccn1 (stereo not drawn)
Ki [1]: 0.191 µM
Ki [2]: 0.0447 µM
Ki [3]: 0.794 µM
Ki [4]: 0.407 µM
Ki [5]: 0.263 µM

CC1OC(=O)[C@H]2C[C@H]3CCCC[C@@H]3[C@@H](/C=C/C3CCCC(C)N3C)[C@@H]12 (single isomer, unassigned) [HIMBACINE]
Ki [2]: 0.01 µM
Ki [3]: 0.49 µM
Ki [5]: 0.107 µM

CN(C)CCOC(=O)C1=C/C(=C\c2ccccn2)c2ccccc21
Ki [1]: 14.1 µM
Ki [2]: 12 µM
Ki [3]: 17.8 µM
Ki [4]: 12.3 µM
Ki [5]: 7.08 µM

CN(C)CCNC(=O)C1=C/C(=C\c2ccncc2)c2ccccc21
Ki [1]: 45.7 µM
Ki [2]: 15.8 µM
Ki [3]: 53.7 µM
Ki [4]: 24.5 µM
Ki [5]: 24 µM

CN(C)CCNC(=O)C1=C/C(=C\c2ccccn2)c2ccccc21
Ki [1]: 61.7 µM
Ki [2]: 41.7 µM
Ki [3]: 55 µM
Ki [4]: 33.9 µM
Ki [5]: 26.9 µM

CN(C)CCC1=C/C(=C\c2cccnc2)c2ccccc21
Ki [1]: 27.5 µM
Ki [2]: 15.1 µM
Ki [3]: 26.9 µM
Ki [4]: 22.4 µM
Ki [5]: 18.6 µM

CN(C)CCOC(=O)C1=C/C(=C\c2ccncc2)c2ccccc21
Ki [1]: 15.1 µM
Ki [2]: 10.5 µM
Ki [3]: 26.9 µM
Ki [4]: 14.8 µM
Ki [5]: 12 µM

CN(C)CCOC(=O)C1=C/C(=C\c2cccnc2)c2ccccc21
Ki [1]: 10 µM
Ki [2]: 7.41 µM
Ki [3]: 30.2 µM
Ki [4]: 12.6 µM
Ki [5]: 11.5 µM

CN(C)CCC1=C/C(=C\c2ccccn2)c2ccccc21
Ki [1]: 21.4 µM
Ki [2]: 12.6 µM
Ki [3]: 19.1 µM
Ki [4]: 12 µM
Ki [5]: 9.55 µM
